Measured values from paper PMC5554137, “Evaluation of novel factor Xa inhibitors from Oxya chinensis sinuosa with anti-platelet aggregation activity” (Scientific Reports, 2017).

What was measured:
C57BL/6 mice = assay: Tail bleeding time; format: in vivo; conditions: tail-cutting assay, mean ± SD, n = 10
Procedure: Figure 4 Effects of compounds 1–4 on clotting and bleeding time. (A) One hour after administration (intravenous injection) of compound 1 (white box), 2 (light gray box), 3 (dark gray box), or 4 (black box), blood was collected from the mice and platelet-poor plasma (PPP) was obtained by centrifugation at 2,000 × g for 10 min at room temperature to test ex vivo activated partial thromboplastin time (aPTT). (B) Each group received a daily intravenous injection of the indicated compound for four consecutive days. Fifteen minutes after the last administration, blood samples were collected and in vivo aPTT was measured. (C) Fifteen minutes after administration of each compound or aspirin (4.5 or 9 mg/kg for 30 min) or the vehicle, tail tips (3 mm long) were cut from each mouse, and the remaining tail was immediately immersed into saline at 37 °C. Accumulated bleeding times (including periods of re-bleeding) were recorded. D = 0.2% DMSO used as the vehicle control. Data are presented as means ± SD of three independent experiments. *p < 0.05 vs. vehicle alone, analyzed by one-way ANOVA, followed by Tukey multiple comparison testing.
To assess bleeding risk incurred by compounds 1–4, we measured bleeding time in mice treated with each compound (up to 30 µM/mouse) by using a tail-cutting assay; the concentration used was three-fold higher than the doses used for the in vivo anti-thrombotic studies. Aspirin-treated mice (9 mg/kg) served as positive controls. […] However, the bleeding time in mice treated with compounds 1–4 was shorter than that observed in mice treated with aspirin ([…], mean ± SD, n = 10). The dose required to avoid thrombus formation and to protect against paralysis or death in mice was determined to be 5 µM per mouse (Fig. 7C).
Tail bleeding times were measured using the method described by Dejana et al.[37]. Briefly, C57BL/6 mice were fasted overnight prior to the experiments. […] after the i.v. administration of each compound, the tails of the mice were transected […] from their tips. Bleeding time was defined as the time elapsed until bleeding stopped. Bleeding times that exceeding 15 min were recorded as 15 min.

tPA = tPA (Homo sapiens, UniProt P00750); assay: Chromogenic substrate assay, Ki determination, tPA; format: biochemical
tPA, sequence (P00750 36-562): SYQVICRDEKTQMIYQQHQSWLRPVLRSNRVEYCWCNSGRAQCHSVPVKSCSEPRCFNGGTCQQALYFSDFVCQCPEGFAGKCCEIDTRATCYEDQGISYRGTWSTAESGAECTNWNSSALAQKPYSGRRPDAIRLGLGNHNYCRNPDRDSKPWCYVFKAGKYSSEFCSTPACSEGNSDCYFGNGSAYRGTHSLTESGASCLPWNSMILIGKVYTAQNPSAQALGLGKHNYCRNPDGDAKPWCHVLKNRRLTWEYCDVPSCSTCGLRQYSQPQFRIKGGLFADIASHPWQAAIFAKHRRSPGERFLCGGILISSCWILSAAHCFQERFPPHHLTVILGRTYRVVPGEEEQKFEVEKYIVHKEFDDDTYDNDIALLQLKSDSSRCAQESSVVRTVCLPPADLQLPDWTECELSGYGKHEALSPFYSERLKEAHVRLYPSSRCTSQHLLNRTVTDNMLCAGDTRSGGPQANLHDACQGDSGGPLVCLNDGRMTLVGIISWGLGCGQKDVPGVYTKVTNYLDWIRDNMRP
Procedure: (§1) The inhibitor (I) constants (Ki) were determined for the inhibition of a series of human enzymes (FXa, thrombin, trypsin, plasmin, protein Ca, streptokinase, tPA, and urokinase) by each compound. Chromogenic substrate assays were performed using a Labsystems IEMS (Cergy Pontoise, France) microtiter plate reader. In each assay, the compound was tested at a minimum of seven concentrations in duplicate to obtain an inhibition curve. Assays were performed according to the following general procedure. In a 96-well microtiter plate, 25 μL of compound, inhibitor solution or buffer was added to 50 μL of substrate. A volume of 25 μL of enzyme solution was added just before the plate was placed in the microtiter plate reader for 1 h at 37 °C. The hydrolysis of the substrate yields p-nitroaniline, which was continuously monitored spectrophotometrically at 405 nm. Data were collected and the initial rate of substrate hydrolysis [Vo (mOD/minute)] was calculated. Following Michaelis-Menten kinetics, the affinity of the enzyme for the substrate, in the absence of the inhibitor (Km) and in the presence of an inhibitor (Kp), was determined to be the negative inverse x-intercept of Lineweaver–Burk plots. The dissociation constant for inhibition (Ki) was calculated using the following equation: Ki = (Km·[I])/(Kp − Km) as described by Williams and Morrison[40].

FXa = target: T1, FXa (Homo sapiens, UniProt P00742); assay: Chromogenic substrate assay, Ki determination, Factor Xa; format: biochemical
T1 construct: purchased Haematologic Technologies (Essex Junction, VT, USA)
T1 sequence (P00742 235-488 limits assumed): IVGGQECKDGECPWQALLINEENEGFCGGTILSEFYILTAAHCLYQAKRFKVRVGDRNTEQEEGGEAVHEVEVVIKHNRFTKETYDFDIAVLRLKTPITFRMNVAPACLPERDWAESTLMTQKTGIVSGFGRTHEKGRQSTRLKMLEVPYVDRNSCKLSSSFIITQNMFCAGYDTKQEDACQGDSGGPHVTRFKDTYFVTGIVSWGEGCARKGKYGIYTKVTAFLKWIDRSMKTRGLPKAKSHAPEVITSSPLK
T1 sequence (P00742 41-179 limits assumed): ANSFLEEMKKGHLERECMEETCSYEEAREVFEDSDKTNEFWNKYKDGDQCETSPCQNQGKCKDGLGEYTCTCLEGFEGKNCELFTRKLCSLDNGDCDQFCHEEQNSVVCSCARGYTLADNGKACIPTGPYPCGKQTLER
Procedure: as §1

Protein Ca = Protein Ca (Homo sapiens, UniProt P04070); assay: Chromogenic substrate assay, Ki determination, Protein Ca; format: biochemical
Protein Ca, sequence (P04070 212-461 limits assumed): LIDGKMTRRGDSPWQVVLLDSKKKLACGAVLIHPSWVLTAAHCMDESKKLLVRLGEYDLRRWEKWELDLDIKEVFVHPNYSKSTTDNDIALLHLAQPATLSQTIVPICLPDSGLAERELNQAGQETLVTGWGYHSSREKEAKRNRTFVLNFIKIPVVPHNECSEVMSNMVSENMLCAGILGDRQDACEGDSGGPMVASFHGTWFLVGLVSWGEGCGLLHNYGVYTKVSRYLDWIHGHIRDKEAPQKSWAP
Protein Ca, sequence (P04070 43-197 limits assumed): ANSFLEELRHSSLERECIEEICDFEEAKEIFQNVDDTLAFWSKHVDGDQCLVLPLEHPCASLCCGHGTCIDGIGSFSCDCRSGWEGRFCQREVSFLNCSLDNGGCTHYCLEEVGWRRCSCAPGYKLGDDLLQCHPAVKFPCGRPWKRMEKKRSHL
Procedure: as §1

In the case of `CC(=O)NCCc1ccc2c(c1)O[C@H](c1ccc(O)c(O)c1)[C@H](NC(C)=O)O2` [Compound 1, (2 R,3 R)-2-(3′,4′-dihydroxyphenyl)-3-acetylamino-7-(N-acetyl-2″-aminoethyl)-1,4-benzodioxane], the bleeding time (C57BL/6 mice; mice treated with 10 µM) is reported as 13.5 ± 1.3 min, the bleeding time (C57BL/6 mice; mice treated with 30 µM) is reported as 14.3 ± 1.2 min and the “Ratio = Ki enzyme/Ki Factor Xa, tPA” value (tPA) is reported as over 100. For the same molecule, the Ki (tPA; substrate S-2228) was over 300 µM, the “Ratio = Ki enzyme/Ki Factor Xa, Factor Xa” value (FXa) was 1 and the Ki (FXa; substrate S-2765 (Table 3), mean ± SD (n = 5)) was 2.96 ± 0.25 µM. For the same molecule, the “Ratio = Ki enzyme/Ki Factor Xa, Protein Ca” value (Protein Ca) was over 100 and the Ki (Protein Ca; substrate S-2366) was over 300 µM.
